The results in this text go back to patent US20240150377A1, “MODULATORS OF CYSTIC FIBROSIS TRANSMEMBRANE CONDUCTANCE REGULATOR” (VERTEX PHARMACEUTICALS INCORPORATED, priority 2020, published 2024).

In the first test the target is T1, CFTR (Homo sapiens, UniProt P13569, DEL508-508).
T1 construct: endogenous in cells; host or cells: primary human bronchial epithelial cells from CF subjects (F508del/MF-HBE), differentiated at air-liquid interface
T1 sequence (P13569 with tags, fused parts or gaps DEL508-508): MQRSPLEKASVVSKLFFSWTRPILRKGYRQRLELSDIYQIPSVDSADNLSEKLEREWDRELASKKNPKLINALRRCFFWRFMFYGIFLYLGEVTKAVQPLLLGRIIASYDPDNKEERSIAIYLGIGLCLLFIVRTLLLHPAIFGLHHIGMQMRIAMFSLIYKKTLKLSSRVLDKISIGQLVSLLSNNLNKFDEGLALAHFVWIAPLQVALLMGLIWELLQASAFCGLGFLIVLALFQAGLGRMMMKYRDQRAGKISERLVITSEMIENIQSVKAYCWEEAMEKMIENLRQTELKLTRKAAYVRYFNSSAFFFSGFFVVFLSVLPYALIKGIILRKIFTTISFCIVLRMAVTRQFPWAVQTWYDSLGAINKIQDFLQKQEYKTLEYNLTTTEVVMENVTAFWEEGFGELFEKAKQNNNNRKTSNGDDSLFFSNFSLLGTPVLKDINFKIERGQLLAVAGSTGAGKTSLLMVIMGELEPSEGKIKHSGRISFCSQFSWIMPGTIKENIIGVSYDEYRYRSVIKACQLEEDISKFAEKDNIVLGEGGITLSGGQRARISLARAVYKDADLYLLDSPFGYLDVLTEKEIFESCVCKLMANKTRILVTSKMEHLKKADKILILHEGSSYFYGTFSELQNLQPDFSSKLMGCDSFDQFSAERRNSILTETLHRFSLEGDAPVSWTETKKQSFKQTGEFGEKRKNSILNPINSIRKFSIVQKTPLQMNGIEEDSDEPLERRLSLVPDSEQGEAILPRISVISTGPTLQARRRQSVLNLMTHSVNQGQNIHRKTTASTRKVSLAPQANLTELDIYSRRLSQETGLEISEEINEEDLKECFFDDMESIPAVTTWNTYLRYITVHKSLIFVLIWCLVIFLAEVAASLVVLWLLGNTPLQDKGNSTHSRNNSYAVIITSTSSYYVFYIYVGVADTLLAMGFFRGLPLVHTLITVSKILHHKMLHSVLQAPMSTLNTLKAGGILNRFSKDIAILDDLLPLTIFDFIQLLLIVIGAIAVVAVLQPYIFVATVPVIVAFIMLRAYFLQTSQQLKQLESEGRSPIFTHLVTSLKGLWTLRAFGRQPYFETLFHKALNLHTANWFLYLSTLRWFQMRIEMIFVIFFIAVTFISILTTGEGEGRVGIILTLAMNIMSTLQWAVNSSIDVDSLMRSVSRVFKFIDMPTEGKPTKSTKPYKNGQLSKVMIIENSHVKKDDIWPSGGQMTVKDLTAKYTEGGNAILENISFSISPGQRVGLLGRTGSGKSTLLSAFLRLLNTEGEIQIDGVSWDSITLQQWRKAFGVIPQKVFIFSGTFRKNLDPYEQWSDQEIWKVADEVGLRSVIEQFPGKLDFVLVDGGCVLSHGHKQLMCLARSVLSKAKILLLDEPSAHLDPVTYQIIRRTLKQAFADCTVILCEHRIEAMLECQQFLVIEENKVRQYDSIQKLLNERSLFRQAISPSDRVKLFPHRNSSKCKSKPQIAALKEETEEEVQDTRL
Put plainly: HBE2 assay: Ussing chamber assay of CFTR-mediated short-circuit currents. In kind it is cell-based. The note with it: 3 μM corrector; F508del/MF-HBE cells; with 44 nM potentiator, 18-24 hours, 20% human serum. The procedure: Ussing Chamber Assay of CFTR-Mediated Short-Circuit Currents
After four days the apical media was removed, and the cells were grown at an air liquid interface for >14 days prior to use.
To isolate the CFTR-mediated short-circuit (ISC) current, F508del/MF-HBE grown on Costar® Snapwell™ cell culture inserts were mounted in an Ussing chamber and the transepithelial ISC was measured under voltage-clamp recording conditions (Vhold=0 mV) at 37° C. […] The CFTR-mediated ISC (μA/cm^2) for each condition was determined from the peak forskolin response to the steady-state current following inhibition.
Identification of Corrector Compounds
The activity of the CFTR corrector compounds on the CFTR-mediated ISC was determined in Ussing chamber studies as described above.
On to `Cc1cccc(C)c1-c1cc2nc(n1)NS(=O)(=O)c1cccc(c1)C(=O)N(Cc1cncc(N3CCC(C)(C)[C@H]3C)n1)[C@H](CC(C)(C)C)CO2` (stereo in doubt) [Compound 1723], for which the “HBE2 Activity at 3 μM (%)” value is on record as “+++ (+++ is >60+)”. The same measure, in the same setting: in the case of `Cc1cccc(C)c1-c1cc2nc(n1)NS(=O)(=O)c1cccc(c1)C(=O)N(Cc1cncc(N(C)C3CCC3)n1)[C@@H]1CN(CC(C)(C)C)CC1O2` (stereo in doubt) [Compound 1740] it was “++ (++ is 30-60%)”; in that of `Cc1cccc(C)c1-c1cc2nc(n1)NS(=O)(=O)c1cccc(c1)C(=O)N(Cc1cncc(N3CCC[C@H]4CC[C@H]43)n1)[C@H](CCC(C)C)CO2` (stereo in doubt) [Compound 1746], “+++ (+++ is >60+)”; in that of `Cc1cccc(C)c1-c1cc2nc(n1)NS(=O)(=O)c1cccc(c1)C(=O)N(Cc1cncc(N3CC(C)(C)[C@H]3C(C)C)n1)[C@H](CC(C)(C)C)CO2` (stereo in doubt) [Compound 1751], “+++ (+++ is >60+)”.

As to `Cc1cccc(C)c1-c1cc2nc(n1)NS(=O)(=O)c1cccc(c1)C(=O)N(Cc1cncc(N3CCO[C@@H](C)[C@H]3C)n1)[C@H](CC(C)(C)C)CO2` (stereo in doubt) [Compound 1760], the “HBE2 Activity at 3 μM (%)” value is recorded as “+++ (+++ is >60+)”. Same read-out and setting: to `Cc1cccc(C)c1-c1cc2nc(n1)NS(=O)(=O)c1cccc(c1)C(=O)N(Cc1cncc(N(C)C3CCC3)n1)[C@@H]1CCN(CC(C)(C)C)CC1O2` (stereo in doubt) [Compound 1765] belongs “++ (++ is 30-60%)”.

With `Cc1cccc(C)c1-c1cc2nc(n1)NS(=O)(=O)c1cccc(c1)C(=O)N(Cc1cncc(N(C)[C@@H]3CC[C@H]3C)n1)[C@H](CC(C)(C)C)CO2` (stereo in doubt) [Compound 1772], the “HBE2 Activity at 3 μM (%)” value is given as “+++ (+++ is >60+)”. On the same count and under the same terms, to `Cc1cccc(C)c1-c1cc2nc(n1)NS(=O)(=O)c1cccc(c1)C(=O)N(Cc1cncc(N(C)[C@H]3CC[C@@H]3C)n1)[C@H](CC(C)(C)C)CO2` (stereo in doubt) [Compound 1773] belongs “+++ (+++ is >60+)”; to `Cc1cccc(C)c1-c1cc2nc(n1)NS(=O)(=O)c1cccc(c1)C(=O)N(Cc1cncc(N3CCCC4CCC43)n1)[C@H](CCC(C)(C)C)CO2` (stereo in doubt) [Compound 1781], “+++ (+++ is >60+)”; to `Cc1cccc(C)c1-c1cc2nc(n1)NS(=O)(=O)c1cccc(c1)C(=O)N(Cc1cncc(N3CCCC4CCC43)n1)[C@H](CCC(C)(C)C)CO2` (stereo in doubt) [Compound 1782], “+++ (+++ is >60+)”. Still for that read-out and setting: to `Cc1cccc(C)c1-c1cc2nc(n1)NS(=O)(=O)c1cccc(c1)C(=O)N(Cc1cncc(N3C[C@H]4CCCCC43)n1)[C@H](CC(C)(C)C)CO2` (stereo in doubt) [Compound 1799] belongs “+++ (+++ is >60+)”; to `Cc1cccc(C)c1-c1cc2nc(n1)NS(=O)(=O)c1cccc(c1)C(=O)N(Cc1cncc(N3CCCC4CCC43)n1)[C@H](CC1CC1)CO2` (stereo in doubt) [Compound 1838], “+++ (+++ is >60+)”; to `Cc1cccc(C)c1-c1cc2nc(n1)NS(=O)(=O)c1cccc(c1)C(=O)N(Cc1cncc(N3CC[C@@H]3C)n1)[C@H](CC1CCCC1)CO2` (stereo in doubt) [Compound 1843], “+++ (+++ is >60+)”. On the same count and under the same terms, in the case of `Cc1cccc(C)c1-c1cc2nc(n1)NS(=O)(=O)c1cccc(c1)C(=O)N(Cc1cncc(N3CC[C@H]4CC[C@H]43)n1)[C@H](CCC(C)(C)C)CO2` (stereo in doubt) [Compound 1855] it was “+++ (+++ is >60+)”; in that of `COC[C@H]1CCCCN1c1cncc(CN2C(=O)c3cccc(c3)S(=O)(=O)Nc3nc(cc(-c4c(C)cccc4C)n3)OC[C@H]2CCC(C)(C)C)n1` (stereo in doubt) [Compound 1856], “+++ (+++ is >60+)”; in that of `Cc1cccc(C)c1-c1cc2nc(n1)NS(=O)(=O)c1cccc(c1)C(=O)N(Cc1cncc(C3CCCCO3)n1)[C@H](CCC(C)(C)C)CO2` (stereo in doubt) [Compound 1880], “+++ (+++ is >60+)”. As for `Cc1cccc(C)c1-c1cc2nc(n1)NS(=O)(=O)c1cccc(c1)C(=O)N(Cc1cncc(C3CCCCO3)n1)[C@H](CCC(C)(C)C)CO2` (stereo in doubt) [Compound 1881], the “HBE2 Activity at 3 μM (%)” value is on record as “+++ (+++ is >60+)”. Still for that read-out and setting: in the case of `Cc1cccc(C)c1-c1cc2nc(n1)NS(=O)(=O)c1cccc(c1)C(=O)N(Cc1cncc(N3CC[C@@H]3C(C)C)n1)[C@H](CC1CCCCC1)CO2` (stereo in doubt) [Compound 1887] it was “+++ (+++ is >60+)”; in that of `CC[C@H]1CCCN1c1cncc(CN2C(=O)c3cccc(c3)S(=O)(=O)Nc3nc(cc(-c4c(C)cccc4C)n3)OC[C@H]2COC2CC2)n1` (stereo in doubt) [Compound 1890], “+++ (+++ is >60+)”. Still for that read-out and setting: to `Cc1cccc(C)c1-c1cc2nc(n1)NS(=O)(=O)c1cccc(c1)C(=O)N(Cc1cncc(N3CCC[C@@H]3C3CC3)n1)[C@H](COC1CC1)CO2` (stereo in doubt) [Compound 1891] belongs “+++ (+++ is >60+)”; to `Cc1cccc(C)c1-c1cc2nc(n1)NS(=O)(=O)c1cccc(c1)C(=O)N(Cc1cncc(N3CCC[C@@H]3C)n1)[C@H](COC1CC1)CO2` (stereo in doubt) [Compound 1892], “+++ (+++ is >60+)”; to `COCC1CCN1c1cncc(CN2C(=O)c3cccc(c3)S(=O)(=O)Nc3nc(cc(-c4c(C)cccc4C)n3)OC[C@H]2COC2CC2)n1` (stereo in doubt) [Compound 1894], “+++ (+++ is >60+)”.

With `Cc1cccc(C)c1-c1cc2nc(n1)NS(=O)(=O)c1cccc(c1)C(=O)N(Cc1cncc(N(C)C3CCC3)n1)[C@H](C1CC(C)(C)C1)CO2` (stereo in doubt) [Compound 1895], the “HBE2 Activity at 3 μM (%)” value is “++ (++ is 30-60%)”. Same read-out and setting: to `Cc1cccc(C)c1-c1cc2nc(n1)NS(=O)(=O)c1cccc(c1)C(=O)N(Cc1cncc(N(C)C3CCC3)n1)[C@H](C1CC(C)(C)C1)CO2` (stereo in doubt) [Compound 1896] belongs “+++ (+++ is >60+)”; to `Cc1cccc(C)c1-c1cc2nc(n1)NS(=O)(=O)c1cccc(c1)C(=O)N(Cc1cncc(N3CCCC[C@@H]3C)n1)[C@H](C1CC(C)(C)C1)CO2` (stereo in doubt) [Compound 1897], “+ (+ is <300))”.

In the case of `Cc1cccc(C)c1-c1cc2nc(n1)NS(=O)(=O)c1cccc(c1)C(=O)N(Cc1cncc(N3CCC4CCC43)n1)[C@H](COC1CC1)CO2` (stereo in doubt) [Compound 1909], the “HBE2 Activity at 3 μM (%)” value is on record as “+++ (+++ is >60+)”. Same read-out and setting: in the case of `Cc1cccc(C)c1-c1cc2nc(n1)NS(=O)(=O)c1cccc(c1)C(=O)N(Cc1cnc3cc(C(C)C)n(C)c3n1)[C@H](C[C@H]1CCCOC1)CO2` (stereo in doubt) [Compound 1932] it was “+++ (+++ is >60+)”; in that of `Cc1cccc(C)c1-c1cc2nc(n1)NS(=O)(=O)c1cccc(c1)C(=O)N(Cc1cncc(N(C)C3CCC3)n1)[C@H](C[C@H]1CCCOC1)CO2` (stereo in doubt) [Compound 1938], “+++ (+++ is >60+)”. The same measure, in the same setting: to `Cc1cccc(C)c1-c1cc2nc(n1)NS(=O)(=O)c1cccc(c1)C(=O)N(Cc1cncc(N3CCC[C@H]3C)n1)[C@H](C[C@H]1CCCOC1)CO2` (stereo in doubt) [Compound 1940] belongs “+++ (+++ is >60+)”.

Staying with this test, now noted: 3 μM; F508del/MF-HBE cells; with 44 nM potentiator; 18-24 hours; 20% human serum.
On to `CC(=O)N1CC2[C@@H](CCN2c2cncc(CN3C(=O)c4cccc(c4)S(=O)(=O)Nc4nc(cc(-c5c(C)cccc5C)n4)OC[C@H]3CC(C)(C)C)n2)C1` (stereo in doubt) [Compound 1663], for which the “HBE2 Activity at 3 μM (%)” value is recorded as “+++ (+++ is >60+)”. On the same count and under the same terms, in the case of `Cc1cccc(C)c1-c1cc2nc(n1)NS(=O)(=O)c1cccc(c1)C(=O)N(Cc1cncc(N3CC[C@H]4CN(C(=O)OC(C)C)CC43)n1)[C@H](CC(C)(C)C)CO2` (stereo in doubt) [Compound 1664] it was “+++ (+++ is >60+)”. Take `CC[C@@H](C)N(C)c1cncc(CN2C(=O)c3cccc(c3)S(=O)(=O)Nc3nc(cc(-c4c(C)cccc4C)n3)OC[C@H]2CC(C)(C)C)n1` (stereo in doubt) [Compound 1672]: the “HBE2 Activity at 3 μM (%)” value was “+++ (+++ is >60+)”.

Consider `Cc1cccc(C)c1-c1cc2nc(n1)NS(=O)(=O)c1cccc(c1)C(=O)N(Cc1cncc(N3C(=O)CCC3C(C)C)n1)[C@H](CC(C)(C)C)CO2` (stereo in doubt) [Compound 1675], for which the “HBE2 Activity at 3 μM (%)” value was “+++ (+++ is >60+)”. Same read-out and setting: to `Cc1cccc(C)c1-c1cc2nc(n1)NS(=O)(=O)c1cccc(c1)C(=O)N(Cc1cncc(N(C)[C@@H]3CC4COCC43)n1)[C@H](CC(C)(C)C)CO2` (stereo in doubt) [Compound 1676] belongs “+++ (+++ is >60+)”; to `Cc1cccc(C)c1-c1cc2nc(n1)NS(=O)(=O)c1cccc(c1)C(=O)N(Cc1cncc(N(C)[C@@H]3C[C@H]4COC[C@H]43)n1)[C@H](CC(C)(C)C)CO2` (stereo in doubt) [Compound 1677], “+++ (+++ is >60+)”.

In the case of `Cc1cccc(C)c1-c1cc2nc(n1)NS(=O)(=O)c1cccc(c1)C(=O)N(Cc1cncc(N3CCC[C@H]4COC[C@H]43)n1)[C@H](CC(C)(C)C)CO2` (stereo in doubt) [Compound 1679], the “HBE2 Activity at 3 μM (%)” value is on record as “+++ (+++ is >60+)”.

The same test, now with this note: F508del/MF-HBE cells; with 44 nM potentiator; 18-24 hours; 20% human serum.
Consider `CC[C@@H](C)N(C)c1cncc(CN2C(=O)c3cccc(c3)S(=O)(=O)Nc3nc(cc(-c4c(C)cccc4C)n3)OC[C@H]2CC(C)(C)C)n1` (stereo in doubt) [Compound 1672], for which the EC50 was below 1000 nM.

Staying with this test, now noted: F508del/MF-HBE cells; with 44 nM potentiator; 18-24 hours; 20% human serum; read-out: HBE2 Max activity (%).
For `CC[C@@H](C)N(C)c1cncc(CN2C(=O)c3cccc(c3)S(=O)(=O)Nc3nc(cc(-c4c(C)cccc4C)n3)OC[C@H]2CC(C)(C)C)n1` (stereo in doubt) [Compound 1672], the Emax is above 60%.

One may read the EC50 as the concentration needed to bring the measured effect to its halfway point.
